Assay results: patent US20110059982A1, “AZAINDOLE COMPOUNDS FOR TREATMENT OF CENTRAL NERVOUS SYSTEM DISORDERS” (MERCK PATENT GESELLSCHAFT MIT BESCHRANKTER HAFTUNG, priority 2008, published 2011)

Columns and labels:
Serotonin reuptake = target: T1, Serotonin reuptake (Rattus norvegicus, UniProt P31652); assay: Serotonin re-uptake inhibition, synaptosomal, [3H]5-HT as tracer; type: biochemical; conditions: [3H]5-HT tracer, imipramine as reference, read-out: IC50 (nmol/L), Serotonin reuptake
T1 construct: from tissue
T1 sequence (P31652 whole entry): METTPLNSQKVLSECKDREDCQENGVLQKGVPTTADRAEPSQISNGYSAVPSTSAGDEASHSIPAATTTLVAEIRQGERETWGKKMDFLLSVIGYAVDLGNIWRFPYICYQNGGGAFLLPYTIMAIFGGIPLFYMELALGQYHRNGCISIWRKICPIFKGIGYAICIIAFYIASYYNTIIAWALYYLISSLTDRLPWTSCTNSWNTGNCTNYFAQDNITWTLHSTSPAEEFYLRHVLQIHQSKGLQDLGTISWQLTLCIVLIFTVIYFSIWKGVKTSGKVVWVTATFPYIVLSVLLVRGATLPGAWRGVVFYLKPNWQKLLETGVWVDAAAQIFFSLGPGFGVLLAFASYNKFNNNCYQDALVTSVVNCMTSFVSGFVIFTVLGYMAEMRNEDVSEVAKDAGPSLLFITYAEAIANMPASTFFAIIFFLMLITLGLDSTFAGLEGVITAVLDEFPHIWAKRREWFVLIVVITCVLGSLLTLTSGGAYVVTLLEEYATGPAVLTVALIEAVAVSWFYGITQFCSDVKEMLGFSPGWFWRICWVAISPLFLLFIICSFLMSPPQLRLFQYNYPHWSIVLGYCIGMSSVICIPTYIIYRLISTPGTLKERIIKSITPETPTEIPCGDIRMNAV
Experimental: Serotonin re-uptake inhibition was determined by means of synaptosomal re-uptake inhibition as described by Perovic & Muller et al. (Arzneim-Forsch. Drug. Res. 1995, 45:1145-1148) with [^3H]5-HT as tracer and imipramine as reference.

Norepinephrine uptake = target: T2, Norepinephrine uptake (Rattus norvegicus, UniProt Q63380); assay: Norepinephrine uptake, [3H]NE as tracer; type: biochemical; conditions: [3H]NE tracer, protriptyline as reference; read-out: IC50 (nmol/L), Norepinephrine
T2 construct: from tissue
T2 sequence (Q63380 1-617): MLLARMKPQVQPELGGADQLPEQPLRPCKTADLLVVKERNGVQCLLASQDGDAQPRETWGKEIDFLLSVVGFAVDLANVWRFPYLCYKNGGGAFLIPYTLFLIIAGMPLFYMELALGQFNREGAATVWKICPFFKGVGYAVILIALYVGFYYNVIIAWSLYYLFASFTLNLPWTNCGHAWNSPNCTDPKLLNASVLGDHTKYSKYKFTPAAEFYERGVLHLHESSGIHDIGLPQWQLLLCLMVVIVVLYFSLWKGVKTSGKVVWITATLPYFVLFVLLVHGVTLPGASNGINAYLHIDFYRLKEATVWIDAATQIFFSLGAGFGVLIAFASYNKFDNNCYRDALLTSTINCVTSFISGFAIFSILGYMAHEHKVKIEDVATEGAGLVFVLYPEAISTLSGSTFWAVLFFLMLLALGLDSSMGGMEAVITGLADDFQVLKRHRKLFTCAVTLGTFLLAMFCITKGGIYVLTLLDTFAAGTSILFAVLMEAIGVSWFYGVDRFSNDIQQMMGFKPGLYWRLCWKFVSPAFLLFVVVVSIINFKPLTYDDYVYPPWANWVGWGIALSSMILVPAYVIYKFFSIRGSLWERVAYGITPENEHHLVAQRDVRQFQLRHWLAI
Experimental: Norepinephrine uptake was determined as described in the Perovic & Muller work with [^3H]NE as tracer and protriptyline as reference.

Dopamine uptake = target: T3, Dopamine uptake (Rattus norvegicus, UniProt P23977); assay: [3H]Dopamine uptake inhibition in crude synaptosomal preparation; type: biochemical; conditions: rat brain synaptosomal preparation, [3H]DA tracer, GBR12909 as reference; read-out: IC50 (nmol/L), Dopamine
T3 construct: A crude synaptosomal membrane preparation from various regions of rat brain was prepared; from tissue; host or cells: crude synaptosomal preparation from rat brain (Sprague-Dawley)
T3 sequence (P23977 whole entry): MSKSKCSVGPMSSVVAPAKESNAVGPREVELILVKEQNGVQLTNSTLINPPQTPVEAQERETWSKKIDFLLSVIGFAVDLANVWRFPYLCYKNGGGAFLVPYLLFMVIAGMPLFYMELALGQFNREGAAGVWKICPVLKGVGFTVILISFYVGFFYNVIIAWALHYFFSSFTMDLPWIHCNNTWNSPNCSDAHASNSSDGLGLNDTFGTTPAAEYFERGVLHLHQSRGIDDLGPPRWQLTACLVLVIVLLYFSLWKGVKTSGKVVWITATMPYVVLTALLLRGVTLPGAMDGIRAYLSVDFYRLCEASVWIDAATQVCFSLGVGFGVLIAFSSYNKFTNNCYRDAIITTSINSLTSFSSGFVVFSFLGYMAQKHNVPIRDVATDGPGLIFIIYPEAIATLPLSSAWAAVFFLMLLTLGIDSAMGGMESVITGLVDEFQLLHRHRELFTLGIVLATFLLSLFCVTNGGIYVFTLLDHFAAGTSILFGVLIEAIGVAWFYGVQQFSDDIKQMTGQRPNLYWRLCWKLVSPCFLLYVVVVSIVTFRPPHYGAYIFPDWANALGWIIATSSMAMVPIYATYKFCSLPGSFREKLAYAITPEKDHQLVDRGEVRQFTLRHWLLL
Experimental: Dopamine uptake inhibition was determined as described by Janowsky et al. (Neurochem. 1986, 46:1272-1276) with [^3H]DA as tracer and GBR12909 as reference.
[^3H]Dopamine uptake inhibition is as provided below:
Tissue preparation—A crude synaptosomal membrane preparation from various regions of rat brain was prepared as described by Berger et al. (Eur. J. Pharmacol. 1985, 107:289-290). Brain tissue from adult male Sprague-Dawley rats (150-200 g) was homogenized in 10 volumes of ice-cold sucrose (0.32 M) using a Teflon glass homogenizer, and centrifuged at 1000 g for 10 min. […] The final protein concentration was 100-200 μg protein/mL, as determined by the method of Lowry et al. (J. Biol. Chem. 1951, 193:265-275).
The uptake of [^3H]dopamine in a crude synaptosomal preparation was measured as described by Harris et al. (Life Sci. 1973, 13:303-312). […] The filters were rinsed three times with 4 mL of ice-cold buffer (Tris-HCl, 50 mM, pH 7.7, containing 120 mM NaCl) and the radioactivity remaining on the filters was measured by conventional liquid scintillation spectrometry. […]
Assay tubes contained 250 μL of the tissue preparation, 50 μL of [^3H]dopamine (40 nM) 200 μL of buffer or various uptake inhibitors, and 1.0 mL of Krebs-Ringer bicarbonate buffer (pH 7.4). […] Radioactivity remaining on the filters was measured by conventional liquid scintillation spectrometry.

5-HT1A receptor = target: T4, 5-HT1A receptor (Homo sapiens, UniProt P08908); assay: 5-HT1A binding assay, [3H]8-OH-DPAT as ligand; conditions: 8-OH-DPAT as reference; for IC50: read-out: IC50 (nmol/L), 5-HT1A
T4 sequence (P08908 1-422): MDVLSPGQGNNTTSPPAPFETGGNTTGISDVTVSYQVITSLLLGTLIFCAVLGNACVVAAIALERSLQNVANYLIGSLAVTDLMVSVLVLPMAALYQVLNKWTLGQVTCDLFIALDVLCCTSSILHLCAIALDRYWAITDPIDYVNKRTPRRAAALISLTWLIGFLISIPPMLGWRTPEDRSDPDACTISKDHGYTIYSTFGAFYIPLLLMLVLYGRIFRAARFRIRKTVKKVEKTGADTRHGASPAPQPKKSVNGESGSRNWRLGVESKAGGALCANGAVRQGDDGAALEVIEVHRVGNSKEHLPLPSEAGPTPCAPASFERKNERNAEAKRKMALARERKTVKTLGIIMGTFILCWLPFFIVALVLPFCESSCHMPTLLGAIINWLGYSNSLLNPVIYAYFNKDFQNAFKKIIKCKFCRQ
Experimental: Binding properties at the 5-HT1A receptor were determined by means of the 5-HT1A binding assay as described in the literature by Mulheron et al. (J. Biol. Chem. 1994, 269:12954-12962) with [^3H]8-OH-DPAT as ligand and 8-OH-DPAT as reference.

SMILES	melting point	IC50 (Serotonin reuptake)	IC50 (Norepinephrine uptake)	IC50 (Dopamine uptake)	Ki (5-HT1A receptor)	IC50 (5-HT1A receptor)
N#Cc1cnc2[nH]cc(CCCCN3CCC(Oc4ccc5c(c4)OCCO5)CC3)c2c1 [Example 3, 3-{4-[4-(2,3-Dihydro-benzo[1,4]dioxin-6-yloxy)-piperidin-1-yl]-butyl}-1H-pyrrolo[2,3-b]pyridine-5-carbonitrile]	240 to 242 °C					
N#Cc1ccc2[nH]cc(CCCCN3CCN(c4ccc5oc(C(N)=O)cc5c4)CC3)c2n1 [Example 2, 5-{4-[4-(5-Cyano-1H-pyrrolo[3,2-b]pyridine-3-yl)-butyl]-piperazin-1-yl}-benzofuran-2-carboxylic acid amide]		> 200 nmol/L	151 to 200 nmol/L	> 200 nmol/L	1 to 50 nM	51 to 100 nmol/L
N#Cc1cnc2[nH]cc(CCCCN3CCN(c4ccc5oc(C(N)=O)cc5c4)CC3)c2c1 [Example 1, 5-{4-[4-(5-Cyano-1H-pyrrolo[2,3-b]pyridine-3-yl)-butyl]-piperazin-1-yl}-benzofuran-2-carboxylic acid amide]		51 to 100 nmol/L	101 to 150 nmol/L	> 200 nmol/L	101 to 150 nM	151 to 200 nmol/L
